Data on three compounds can be found in patent US9238053B2, “Methods for treatment of pain” (Nocicepta LLC, priority 2009, dated 2016).

The subject of one series is male rats. Put plainly: Facial formalin model of tonic pain (formalin injection into the lip, facial wiping/grooming). It is filed as in vivo. To be noted: rat lip formalin. As for the experimental part:
Time spent grooming was determined over 45 minutes and grouped in 3 minute bins. […] The area under the curve (AUC) for each compound or vehicle was approximated using the trapezodial method. % Reduction=[(Vehicle AUC−Treatment AUC)/Vehicle AUC)]×100%. Data are presented as the mean±1 SEM. (n=6-8 Rats/group).
The paw formalin model is widely used to assess tonic pain efficacy of putative and known analgesic treatments.

The target in a further series is T1, NOP receptor (Rattus norvegicus, UniProt P35370).
T1 construct: from tissue; host or cells: whole living male Sprague-Dawley rats (in vivo)
Put plainly: Effect of nociceptin antagonist on intranasal nociceptin induced reduction of thermal nociception. It is filed as in vivo. As to conditions: subcutaneous 10.0 mg/kg, 45 minutes before i.n. nociceptin (5.0 mg/kg); rat cheek and hindpaw. The text has this: This experiment was to verify the binding site of nociceptin induced analgesia in a thermal nociceptive rodent model.
(A) Groups of six rats per test run were lightly anesthetized with urethane (1.0 g/kg, i.p., titrated to minimal activity in the absence of a stimulus) (Sherman and Loomis et al, 1996). The left and right cheeks and right hindpaw were blackened with India ink to allow even heat distribution.
(B) Each 200-300 g male Sprague-Dawley rat was subjected to varying heat intensities on the left and right check and right hindpaw for selective testing of A-delta vs. C fiber nociception (Yeomans et al., 1996). • For C-fiber testing, the heat intensity was adjusted by altering the supply voltage of a focused projector lamp until a withdrawal latency between 9-13 seconds was observed. […] To reduce the potential for tissue damage, a cut-off latency of 20 seconds was used after which the stimulus was terminated. […]
(E) Withdrawal latencies were measured in response to radiant heat stimulation of the left and right cheeks, followed by similar measurements of response latencies for each hindpaw. […]
The efficacy of nasal application of nociceptin was measured in rats pretreated with subcutaneous nociceptin antagonist in comparison to rats pre-treated with subcutaneous saline vehicle. […]

For the next series, the system named is rats. As to conditions: intraperitoneal 3.0 mg/kg or intranasal 4.0 mg/kg, regardless of route.

T1 sequence (P35370 whole entry): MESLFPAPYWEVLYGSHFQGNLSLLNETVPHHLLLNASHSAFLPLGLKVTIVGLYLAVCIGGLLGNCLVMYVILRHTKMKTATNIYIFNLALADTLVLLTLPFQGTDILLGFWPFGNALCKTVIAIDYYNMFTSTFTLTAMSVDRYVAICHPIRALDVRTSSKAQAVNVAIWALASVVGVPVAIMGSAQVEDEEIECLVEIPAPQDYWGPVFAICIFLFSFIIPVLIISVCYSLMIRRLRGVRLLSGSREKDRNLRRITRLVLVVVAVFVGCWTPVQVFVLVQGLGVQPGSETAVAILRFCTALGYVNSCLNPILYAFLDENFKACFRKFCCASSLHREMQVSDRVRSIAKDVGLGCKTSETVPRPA

As to `CNS(=O)(=O)Cc1ccc2[nH]cc(CCN(C)C)c2c1` [sumatriptan], the inhibition (in general, the relative decrease from the control value, in per cent) at 42 mg/kg in the series on male rats (ip, 42 mg/kg i.p., read-out: inhibition of facial wiping behavior) is 43.8%.
`Cc1cccc2c1CC[C@@H](CN1CCC(c3c(Cl)cccc3Cl)CC1)C[C@H]2O` [SB-612111, (−)-cis-1-methyl-7-[[4-(2,6-dichlorophenyl)piperidin-1-yl]-methyl]-6,7,8,9-tetrahydro-5H-benzocyclohepten-5-ol]: the “effect on analgesic activity of intranasal nociceptin” value on NOP receptor is “apparent block of the analgesic activity of nociceptin”.
On to `CN1CC[C@]23c4c5ccc(O)c4O[C@H]2[C@@H](O)C=C[C@H]3[C@H]1C5` [morphine], for which the “maximal inhibition of facial wiping behavior” value in the series with male rats (3 mg/kg i.n.) came out at 80.2%. Further, the “effect on intestinal transit (percent transit)” value in the series on rats is listed as “considerable slowing of transit”.
